Data from the CheMixHub drug solubility set.

Assay: xn = mol fraction of the nth substance listed, in the solute-free solvent

O=C1C=CC(=O)N1c1ccccc1Br + CN1CCCC1=O + O
solubility (g/100 g solution)
Conditions | 278.15 K | 283.15 K | 288.15 K | 293.15 K | 298.15 K | 303.15 K | 308.15 K | 313.15 K | 318.15 K | 323.15 K
x2 = 0.0198 | 0.759 | 0.975 | 1.23 | 1.5 | 1.9 | 2.31 | 2.81 | 3.43 | 4.09 | 4.91
x2 = 0.04347 | 2.17 | 2.74 | 3.4 | 4.11 | 5.08 | 6.17 | 7.35 | 8.81 | 10.3 | 12.2
x2 = 0.07228 | 4.95 | 6.03 | 7.43 | 8.92 | 10.6 | 12.4 | 14.7 | 17.2 | 19.7 | 22.4
x2 = 0.1081 | 8.04 | 9.64 | 11.7 | 13.7 | 16.3 | 18.8 | 21.8 | 24.8 | 28 | 31.5
x2 = 0.1538 | 12.4 | 14.7 | 17.1 | 20 | 22.9 | 26.2 | 29.7 | 33.3 | 36.9 | 40.5
x2 = 0.2143 | 16.7 | 19.8 | 22.4 | 25.9 | 29.3 | 33.2 | 37 | 40.7 | 44.8 | 48.7
x2 = 0.2979 | 21.5 | 24.7 | 28.1 | 31.6 | 35.2 | 39.1 | 43.5 | 47.2 | 51.2 | 55.1
x2 = 0.421 | 24.7 | 28.2 | 31.9 | 35.7 | 40 | 44.2 | 48.6 | 52.7 | 56.9 | 60.9
x2 = 0.6207 | 26.4 | 29.9 | 34.1 | 38.1 | 42 | 46.6 | 50.6 | 55.1 | 59.5 | 63.9

c1ccc2c(c1)CCc1ccccc1N2 + CS(C)=O + O
solubility (g/100 g solution)
Conditions | x2 = 0.02506 | x2 = 0.0546 | x2 = 0.08995 | x2 = 0.1286 | x2 = 0.1882 | x2 = 0.2567 | x2 = 0.3485 | x2 = 0.4779 | x2 = 0.665
293.15 K | 0.237 | 2.56 | 6.27 | 6.04 | 5.43 | 5.01 | 4.74 | 5.59 | 6.04
298.15 K | 0.323 | 3.31 | 7.85 | 7.49 | 6.85 | 6.32 | 5.77 | 6.8 | 7.23
303.15 K | 0.412 | 4.04 | 9.35 | 8.95 | 8.16 | 7.51 | 6.86 | 8.1 | 8.7
308.15 K | 0.544 | 5.06 | 11.4 | 10.8 | 9.87 | 8.98 | 8.2 | 9.64 | 10.2
313.15 K | 0.69 | 6.11 | 13.3 | 12.7 | 11.6 | 10.5 | 9.62 | 11.2 | 11.7
318.15 K | 0.878 | 7.39 | 15.7 | 14.9 | 13.7 | 12.4 | 11.2 | 12.8 | 13.4
323.15 K | 1.11 | 8.88 | 18.2 | 17.2 | 15.8 | 14.3 | 13 | 14.6 | 15.1
328.15 K | 1.39 | 10.5 | 21 | 19.9 | 18.1 | 16.5 | 14.9 | 16.5 | 17.1

O=C1C=CC(=O)N1c1ccccc1Br + CCO + O
solubility (g/100 g solution)
Conditions | 278.15 K | 283.15 K | 288.15 K | 293.15 K | 298.15 K | 303.15 K | 308.15 K | 313.15 K | 318.15 K | 323.15 K
x2 = 0.04165 | 0.529 | 0.674 | 0.862 | 1.08 | 1.34 | 1.67 | 2.03 | 2.48 | 2.98 | 3.59
x2 = 0.08908 | 0.965 | 1.24 | 1.54 | 1.93 | 2.39 | 2.94 | 3.58 | 4.39 | 5.22 | 6.22
x2 = 0.1436 | 1.66 | 2.09 | 2.65 | 3.22 | 3.94 | 4.8 | 5.87 | 6.98 | 8.31 | 9.86
x2 = 0.2068 | 2.5 | 3.13 | 3.83 | 4.75 | 5.68 | 6.85 | 8.18 | 9.81 | 11.5 | 13.3
x2 = 0.2812 | 3.54 | 4.34 | 5.21 | 6.34 | 7.51 | 9.04 | 10.5 | 12.3 | 14.3 | 16.5
x2 = 0.3698 | 4.32 | 5.25 | 6.3 | 7.63 | 8.97 | 10.7 | 12.4 | 14.4 | 16.6 | 18.8
x2 = 0.4772 | 4.85 | 5.92 | 7.08 | 8.5 | 10 | 11.8 | 13.7 | 15.7 | 18.1 | 20.8
x2 = 0.6101 | 5.33 | 6.52 | 7.78 | 9.33 | 11 | 12.9 | 15.1 | 17.4 | 19.9 | 22.6
x2 = 0.7788 | 5.65 | 6.85 | 8.21 | 9.83 | 11.7 | 13.6 | 15.8 | 18.6 | 20.8 | 23.7

O=c1cc(CBr)c2ccccc2[nH]1 + CC(C)O + O
solubility (g/100 g solution)
Conditions | 278.15 K | 283.15 K | 288.15 K | 293.15 K | 298.15 K | 303.15 K | 308.15 K | 313.15 K | 318.15 K
x2 = 0.03225 | 0.0121 | 0.0159 | 0.0207 | 0.0271 | 0.0355 | 0.0446 | 0.057 | 0.0718 | 0.0897
x2 = 0.06974 | 0.0203 | 0.0259 | 0.0329 | 0.0413 | 0.0516 | 0.0641 | 0.079 | 0.0958 | 0.119
x2 = 0.1139 | 0.03 | 0.0369 | 0.0456 | 0.0556 | 0.0685 | 0.0827 | 0.099 | 0.118 | 0.14
x2 = 0.1666 | 0.0397 | 0.0483 | 0.0576 | 0.0694 | 0.082 | 0.0986 | 0.115 | 0.136 | 0.158
x2 = 0.2307 | 0.0498 | 0.0596 | 0.0697 | 0.0834 | 0.0971 | 0.113 | 0.131 | 0.151 | 0.173
x2 = 0.3103 | 0.0585 | 0.0689 | 0.0799 | 0.0928 | 0.106 | 0.123 | 0.141 | 0.161 | 0.18
x2 = 0.4117 | 0.0623 | 0.0721 | 0.0833 | 0.0972 | 0.112 | 0.127 | 0.144 | 0.163 | 0.184
x2 = 0.5454 | 0.065 | 0.0751 | 0.0871 | 0.1 | 0.114 | 0.13 | 0.147 | 0.164 | 0.185
x2 = 0.7297 | 0.0639 | 0.0739 | 0.0847 | 0.0962 | 0.11 | 0.124 | 0.14 | 0.158 | 0.176
